Measured values published in article PMC4052313, “A New Lyngbyatoxin from the Hawaiian Cyanobacterium Moorea producens” (Marine Drugs, 2014).
Where two headings read alike, the source gives them in different places.

What was measured:
[1] = Cytotoxicity assay toward L1210 leukemia cells; format: cell-based; details: mouse
Method: The cytotoxic activities of compounds 1 and 2 were tested toward L1210 mouse leukemia cells. The detailed methods were reported previously. Differences with the reported methods were (a) samples were dissolved with methanol; and (b) the methanol dissolved samples were applied onto each well and air-dried before the addition of L1210 cells.

[2] = system: shrimp Palaemon paucidens; assay: Crustacean lethality test, injection into abdominal cavity of shrimp; format: in vivo; details: for LD100 (lethal dose 100%): injection into abdominal cavity, monitored for 4 h
Method: The shrimp Palaemon paucidens (average weight, 0.5 g) was used for the crustacean lethality test. Tested samples were suspended with 1% Tween 20 (polyoxyethylene (20) sorbitan monolaurate). Two micro liter of each sample suspension was injected into the abdominal cavity of the shrimp (n = 3–5). The shrimp were monitored every 30 min for 4 h. Through the lethality tests, the lethal dose 100% values (LD100) were determined. One percent Tween 20 without sample was used as reference. LD100 was defined as weight of sample per unit weight of crustacean.

PKCδ-C1B peptide [3] = molecular target: T1, PKCδ-C1B peptide (Mus musculus, UniProt P28867); assay: Competition binding assay with [3H]PDBu using synthetic PKCδ-C1B peptide
T1 construct: made in house; host or cells: chemical peptide synthesis (no expression host)
Method: The binding of [^3H]PDBu to the PKCδ-C1B peptide was evaluated by the procedure of Sharkey and Blumberg with modifications as reported previously using 50 mM tris-maleate buffer (pH 7.4 at 4 °C), 13.8 nM PKCδ-C1B peptide, 20 nM [^3H]PDBu (18.7 Ci/mmol, Perkin-Elmer Life Sciences), 50 μg/mL 1,2-dioleoyl-sn-glycero-3-phospho-L-serine (Sigma, St. Louis, MO, USA), 3 mg/mL bovine γ-globulin (Sigma, St. Louis, MO, USA), and various concentrations of inhibitors. The concentration of the properly folded PKCδ-C1B peptide was estimated to be about 3 nM on the basis of Bmax values of Scatchard analyses reported previously. Binding affinity was evaluated based on the concentration required to cause 50% inhibition of the specific binding of [^3H]PDBu, the IC50, which was calculated with Microsoft Excel. The inhibition constant, Ki, was calculated by the method of Sharkey and Blumberg.

PKCδ-C1B peptide [4] = molecular target: T1, PKCδ-C1B peptide; details: read-out: Ki for binding to PKCδ-C1B; cited from earlier work
HeLa cells = details: read-out: IC50 (cytotoxic effects); cited from earlier work
ACC-MESO-1 cells = details: read-out: IC50 (cytotoxic effects); cited from earlier work

T1 sequence (P28867 231-281 limits assumed): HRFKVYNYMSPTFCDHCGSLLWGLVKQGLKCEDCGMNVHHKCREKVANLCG

Row | SMILES | IC50 [1] | LD100 (lethal dose 100%) [2] | Dose causing paralysis ([2]; injection, dose below the lethal dose) | Ki (PKCδ-C1B peptide [3]) | Times lower binding affinity for PKC compared to lyngbyatoxin A (2) (PKCδ-C1B peptide [3]; PKCδ-C1B peptide, relative to compound 2) | Ki (PKCδ-C1B peptide [4]) | Paralysis at dose less than the lethal amount ([2]; injection) | IC50 (HeLa cells) | IC50 (ACC-MESO-1 cells)
1 | C=C[C@@](C)(CCC=C(C)C)c1ccc2c3c(c[nH]c13)C[C@@H](CO)NC(=O)[C@@H](C(C)C)N2C [compound 1, 12-Epi-lyngbyatoxin A] | 20.4 µM | 7.5 mg/kg | 0.9 mg/kg | 0.017 µM | more than 100 times |  |  |  | 
2 | CO[C@@H](CC[C@H](C)[C@H]1O[C@@]23C[C@H](OC(=O)C[C@H]([C@@H](C)O)OC(=O)C[C@](O)(O2)[C@H](C)CC3(C)C)[C@@H]1C)c1cccc(O)c1 [DATX, debromoaplysiatoxin] |  |  |  |  |  | 0.0002 µM |  |  | 
3 | C=C[C@@](C)(CCC=C(C)C)c1ccc2c3c(c[nH]c13)C[C@@H](CO)NC(=O)[C@H](C(C)C)N2C [compound 2, Lyngbyatoxin A] | 8.1 µM | 5 mg/kg |  | 0.00011 µM |  |  | Paralysis was not observed | 35 µM | 11 µM
4 | CO[C@@H](CC[C@H](C)[C@H]1O[C@@]23C[C@H](OC(=O)C[C@H]([C@@H](C)O)OC(=O)C[C@](O)(O2)[C@H](C)CC3(C)C)[C@@H]1C)c1cc(O)ccc1Br [ATX, Aplysiatoxin] |  |  |  |  |  | 0.00041 µM |  |  | 
